Four compounds from patent publication US20010019728A1 (priority 1997, published 2001) can be followed below.

SMILES strings stand for the structures. Values joined by “and” are separate entries in the source; they are usually repeats but may differ in a detail not shown here. Equal values may be shown once.

What all share (settings): in vivo
The subject of assay [1] is Fusarium oxysporum.
Assay [2] concerns Nonparasitic nematodes.
The test system of assay [3] is Xiphinema index.
Assay [4] concerns dagger nematode (Xiphinema index+Xiphinema americanum).
The test system of assay [5] is Xiphinema americanum.
Assay [6] has as its system total plant-parasitic nematode population.
Assay [7] has as its system Tylenchorhynchus spp.

As to `C#CCBr` [Propargyl Bromide, Propargyl bromide], the Fusarium oxysporum in assay [1] is 1.26d Log (cfu/g soil) and 1.10cd Log (cfu/g soil). Further, in assay [2], the Nonparasitic nematodes is 1,304a Nematodes/250 cc soil and 1,600cd Nematodes/250 cc soil.

For `CNC(=S)[S-].[Na+]` [Metham Sodium 1X, Metham sodium], the Nonparasitic nematodes in assay [2] is 944a Nematodes/250 cc soil and 651d Nematodes/250 cc soil.

Consider `CI` [Methyl Iodide 0.5X, Methyl iodide], for which the Fusarium oxysporum in assay [1] was 3.79a Log (cfu/g soil) and 3.44a Log (cfu/g soil).

On to `CCOP(=O)(NC(C)C)Oc1ccc(SC)c(C)c1` (stereo not shown) [FENAMIPHOS®, FENAMIPHOS], for which, in assay [3], the “Plant-parasitic Nematode Population: Xiphinema index” value is reported as 30.00a per 250 cc soil, the “population increase in the soil Xiphinema index populations relative to the untreated control” value is listed as 30% and the “reduction of Xiphinema index populations” value was found to be 84%. In addition, the “reduction in the dagger nematode (Xiphinema index+Xiphinema americanum) populations relative to T5” value in assay [4] amounted to 73%. Besides, in assay [5], the “Plant-parasitic Nematode Population: Xiphinema americanum” value was 10.00a per 250 cc soil and 9.00a per 250 cc soil and 5.40a per 250 cc soil; the “decrease in the Xiphinema americanum populations relative to the untreated control” value is listed as “no effect”; the “decrease of the Xiphinema americanum population relative to T5” value is recorded as “not controlled”. Also, in assay [6], the “Plant-parasitic Nematode Population: Total” value is 80.00a per 250 cc soil and 94.00a per 250 cc soil and 105.80a per 250 cc soil; the “decrease in overall total plant-parasitic nematode population relative to the untreated control” value is 30% and 31%; the “decrease in overall total plant-parasitic nematodes populations relative to the untreated control” value amounted to 51%; the “reduction in group nematode population without considering the Helicotylenchus nematode species” value was 12%. In addition, the “Plant-parasitic Nematode Population: Tylenchorhynchus spp.” value in assay [7] is given as 0.00a per 250 cc soil.
